Data: patent publication US11571454B2, “Anticancer peptides that synergistically enhance chemotherapeutic potency” (The Penn State Research Foundation, priority 2017, dated 2023)
Marks after values point to notes of the source that are not given here.

Key:
OVCAR-3 cells [1] = assay: TMRE-staining flow cytometry (mitochondrial transmembrane potential); type: cell-based, human; conditions: 48 hour incubation, varying concentrations
Experimental: (5 μM). Cells were incubated for 30 min. with 200 nM TMRE, washed twice with PBS, and analyzed for fluorescence by flow cytometry on a BD […] (BD Biosciences, Franklin Lakes, N.J.).

[2] = test system: cleaved caspase 3 in OVCAR-3 cells; assay: Western blot of cleaved caspase 3; type: cell-based, human; conditions: 1× and 2× IC50; activation at 48 hours
Experimental: For western blots, OVCAR-3 cells were first seeded at 2.5×10^5 cells/well in a 6 well plate and allowed to adhere overnight. Cells were then treated in 5% FBS media with 1×IC50 and 2×IC50, with untreated controls of media alone. Following 2 or 48 hours of treatment, the whole-cell protein lysates were prepared in RIPA buffer (50 mM Tris.NaOH at pH 7.4, 150 mM NaCl, 1% IGEPAL-CA630 [octylphenoxy poly(ethyleneoxy)ethanol], 0.5% sodium deoxycholate, 0.1% SDS, 2 mM EDTA, protease/phosphatase inhibitors) by first scraping the bottom of the well and subsequently briefly sonicated. The lysates were centrifuged to clear cellular debris, separated by 12% SDS-PAGE, and transferred to a 0.2 μm Nitrocellulose Membrane using the Bio-Rad Trans-Blot Turbo transfer machine (Bio-Rad, Hercules, Calif., USA) according to the manufacturer's protocols. The blot was incubated in 5% Immunoanalytical Grade Non-fat Dry Milk for 1 hour, followed by incubation with antibodies against cleaved caspase-3 (1:1000) or actin (1:1000) at 4° C. for 16 hours. The blots were then incubated with 1:2000 dilution in 1×BSA of anti-mouse or anti-rabbit antibodies for 1 hour before washing with TBST three times for 15 min. and developing using Pierce ECL system according to the manufacturer's protocol.

[3] = test system: patient-derived tumor cell spheroids (EOC15, 17, 19); assay: Ex vivo 3D tumor spheroid culture; type: cell-based, human; conditions: 2 μM cisplatin or 4 μM MAD1 alone, 48 hours
Experimental: EOC patient-derived cells were cultured in 1:1 MCDB-105: M199 supplemented with 10% FBS and 1% penicillin-streptomycin. EOC patient-derived cells were provided by Dr. Katherine M. Aird under an Institutional Review Board-approved protocol. EOC patient-derived cells were collected from patient ascites fluid after paracentesis procedures. Cells were routinely tested for mycoplasma as previously described. […] Spheroid length and width was calculated using ImageJ. Spheroid volume was calculated using the following equation […] Statistical Methods […] IC50 values are reported as mean values±standard deviation. […] Pore size frequency distribution was completed by ImageJ FIJI on 4 independent cells and n=30 pores from SEM images. […] Individual UV-Vis and CD spectra, as well as fluorescent confocal and TEM micrographs, shown are representative plots from three individual experiments. CD data is with a variance in ellipticity of 0.2 millidegrees at each wavelength. Relative fluorescence data calculated from fluorescent confocal images represents the average of 10 independent measurements±standard deviation. For spheroid volume analysis, a Kruskal-Wallis test and Dunn's multiple comparisons test was performed using GraphPad Prism 8.

[4] = test system: polymicrobial panel (six bacterial lines); assay: Antimicrobial activity against polymicrobial panel; type: cell-based
[5] = test system: non-cancerous cell lines HUVEC and NL20; assay: MTT cytotoxicity, non-cancerous control cell lines; type: cell-based, human
Experimental: All cells were cultured using standard culture conditions at 37° C., 5% CO2, and 95% humidity. A549 (CCL-185), OVCAR-3 (HTB-161), T24 (HTB-4), and NCI/ADR-RES were cultured in RPMI-1640 supplemented with 10% v/v fetal bovine serum (FBS), 2 mM L-glutamine (L-Gln), 10,000 units penicillin/mL, 10 mg/mL streptomycin, and 25 μg/mL amphotericin B. HUVEC (PCS-100-010) cells were cultured in Vascular Cell Basal Media (PCS-100-030) supplemented with an Endothelial Cell Growth Kit-VEGF (PCS-100-041) and 10 μg/mL gentamycin in culture flasks coated with 0.1% gelatin by incubating at 37° C. for 15 min. NL20 (CRL-2503) cells were cultured in Ham's F12 supplemented with 1.5 g/L sodium bicarbonate, 2.7 g/L glucose, 2.0 mM L-glutamine, 0.1 mM nonessential amino acids, 0.005 mg/ml insulin, 10 ng/ml epidermal growth factor, 0.001 mg/ml transferrin, 500 ng/ml hydrocortisone and 4% fetal bovine serum, as advised by American Type Culture Collection (ATCC).
Viability was calculated by comparing to an untreated control.
All experiments were performed with n>6.

[6] = test system: OVCAR-3 ovarian carcinoma cells
[7] = test system: human lung epithelium (NL20); conditions: read-out: Healthy (IC50, μM) NL20; 48 hours treatment, MTT
OVCAR-3 cells [8] = conditions: read-out: IC50, nuclei-counting assay; OVCAR-3, Hoechst nuclei counting
B. subtilis (168) = conditions: 24 hours, Gram Positive
MS S. aureus = conditions: 24 hours, Gram Positive
MR S. aureus = conditions: 24 hours, Gram Positive
P. aeruginosa = conditions: 24 hours, Gram Negative
M. tuberculosis = conditions: 24 hours, Mycobacteria
[9] = test system: T24 (urinary bladder transitional cell carcinoma) cells; assay: MTT cytotoxicity assay, T24

H-KRWHWWRRHWVVW-NH2 [MAD1]
mitochondrial integrity (TMRE fluorescence) (OVCAR-3 cells [1]): generally unchanged | cleaved caspase 3 (western blot) [2]: presence of cleaved caspase 3 | spheroid size, single agent [3]: minimal reduction in size | antimicrobial activity against polymicrobial panel [4]: bactericidal activity | toxicity towards non-cancerous control cell lines [5]: well tolerated | Therapeutic Index OVCAR-3 ([6]; IC50-HUVEC/IC50-OVCAR-3): 7 | IC50 ([6]; read-out: Cancerous (IC50, μM) OVCAR-3, 48 hours treatment, MTT): 14.2 µM | IC50 [7]: 76.9 µM | IC50 (OVCAR-3 cells [8]): 3.3 µM | MIC (μM) B. subtilis (168) (B. subtilis (168)): 0.2 µM | MIC (μM) MS S. aureus (MS S. aureus): >80^a μM | MIC (μM) MR S. aureus (MR S. aureus): >80^a μM | MIC (μM) P. aeruginosa (P. aeruginosa): 50^a μM | MIC (μM) M. tuberculosis (M. tuberculosis): 2.5 µM | IC50 ([9]; read-out: Cancerous (IC50, μM) T24, 48 hours treatment, MTT): > 100 µM | cytotoxic activity towards T24 ([9]; result in words): inactive
